According to ChEMBL document CHEMBL4706478, “Design, Synthesis, and Preclinical Evaluation of Fused Pyrimidine-Based Hydroxamates for the Treatment of Hepatocellular Carcinoma” (J Med Chem, 2018):

Experiments:
[1] = physchem; settings: n-octanol/water, pH 7.4
[2] = in vitro; settings: human, pooled liver microsomes
[3] = in vitro; settings: mouse, liver microsomes
[4] = in vitro; settings: rat, liver microsomes
[5] = AUC (0 to infinity) in Balb/c mouse at 50 mg/kg, iv by mass spectrometry; format: ADME, organism-based; set-up: route intravenous, time infinity, dose 50 mg/kg; settings: in vivo
[6] = AUC (0 to infinity) in Balb/c mouse at 50 mg/kg, po by mass spectrometry; format: ADME, organism-based; set-up: route oral, time infinity, dose 50 mg/kg; settings: in vivo
[7] = AUC (0 to infinity) in Balb/c mouse at 150 mg/kg, po by mass spectrometry; format: ADME, organism-based; set-up: route oral, time infinity, dose 150 mg/kg; settings: in vivo
[8] = Tmax in Balb/c mouse at 50 mg/kg, po by mass spectrometry; format: ADME, organism-based; settings: in vivo
[9] = Tmax in Balb/c mouse at 150 mg/kg, po by mass spectrometry; format: ADME, organism-based; settings: in vivo
[10] = Cmax in Balb/c mouse at 50 mg/kg, po by mass spectrometry; format: ADME, organism-based; set-up: route oral, dose 50 mg/kg; settings: in vivo
[11] = Cmax in Balb/c mouse at 150 mg/kg, po by mass spectrometry; format: ADME, organism-based; set-up: route oral, dose 150 mg/kg; settings: in vivo
[12] = Clearance in Balb/c mouse at 50 mg/kg, iv by mass spectrometry; format: ADME, organism-based; settings: in vivo
[13] = Volume of distribution at steady state in Balb/c mouse at 50 mg/kg, iv by mass spectrometry; format: ADME, organism-based; settings: in vivo, read-out: Vdss
[14] = Oral bioavailability in Balb/c mouse at 50 mg/kg by mass spectrometry; format: ADME, organism-based; settings: in vivo
[15] = Oral bioavailability in Balb/c mouse at 150 mg/kg by mass spectrometry; format: ADME, organism-based; settings: in vivo

In the case of `O=C(CCCCCCC(=O)Nc1ccccc1)NO` [VORINOSTAT], the logD [1] is reported as 1.05.
Work on `COc1ccc(-c2nc(N3CCOCC3)c3sc(CN(C)c4ncc(C(=O)NO)cn4)cc3n2)cn1` [FIMEPINOSTAT] yielded a logD [1] of 3.07.
For `Nc1ncc(-c2nc(N3CCOCC3)c3ncn(CCCCCCC(=O)NO)c3n2)cn1`, the half-life at 1 h, 5 µM [2] was greater than 60 min, the half-life at 1 h, 5 µM [3] was greater than 60 min and the half-life at 1 h, 5 µM [4] was 35 min.
In the case of `O=C(CCCCCCn1cnc2c(N3CCOCC3)nc(-c3cccc(CO)c3)nc21)NO`, the AUC(0-inf) [5] is reported as 16.7 µM·h, the AUC(0-inf) [6] is reported as 0.97 µM·h and the AUC(0-inf) [7] is reported as 9.06 µM·h. The Tmax [8] was 10.2 min, the Tmax [9] was 30 min and the Cmax [10] was 3.9 µM. The Cmax [11] was 10.1 µM, the clearance [12] was 110 mL/min/kg and the Vd [13] was 3.06 L/kg. The bioavailability [14] was 5.8%, the bioavailability [15] was 18.1% and the logD [1] was 2.07.
